For orientation: EC50 means the concentration that produces a half-maximal response.

In patent US12252524B2, “GIP/GLP1 co-agonist compounds” (Eli Lilly and Company, priority 2018, dated 2025) one finds EC50 data, which are given here for 5 compounds.

Test [1] has as its target human GLP-1 receptor (GLP-1R) (Homo sapiens, UniProt P43220). The experiment in a line: cAMP pharmacological functional assay in presence of casein, hGLP-1R. To be noted: HEK293 cells expressing hGLP-1R, 0.1% Casein, geometric mean; read-out: hGLP1R cAMP Rel EC50 nM (SEM, n). It counts as cell-based.
In test [2] the target is T1, gastric inhibitory peptide receptor (GIPR) (Homo sapiens, UniProt P48546).
T1 sequence (P48546 22-466): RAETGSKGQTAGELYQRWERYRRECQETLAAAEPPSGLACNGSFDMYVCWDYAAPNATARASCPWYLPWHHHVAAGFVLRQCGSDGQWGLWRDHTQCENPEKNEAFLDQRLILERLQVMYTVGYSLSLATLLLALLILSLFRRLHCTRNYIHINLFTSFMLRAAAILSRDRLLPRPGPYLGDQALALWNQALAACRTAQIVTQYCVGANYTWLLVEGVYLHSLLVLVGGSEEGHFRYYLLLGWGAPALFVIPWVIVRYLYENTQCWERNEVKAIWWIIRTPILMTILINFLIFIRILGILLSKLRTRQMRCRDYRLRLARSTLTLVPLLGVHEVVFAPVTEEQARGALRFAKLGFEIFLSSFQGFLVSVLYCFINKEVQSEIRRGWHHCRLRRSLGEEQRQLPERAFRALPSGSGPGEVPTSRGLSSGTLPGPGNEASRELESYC
The test is described as follows: cAMP pharmacological functional assay in presence of casein, hGIPR. It counts as cell-based. To be noted: HEK293 cells expressing hGIPR, 0.1% Casein, geometric mean; read-out: hGIPR cAMP Rel EC50 nM (SEM, n).

The structures appear in SMILES notation. Numbered stars: 1 amine (or outer) side, 2 acyl side, 3 side chain; on linkers, the order of the positions; unused ones are H or OH. Square brackets hold non-standard residues; d marks the D form. Side chains are listed from the residue outwards. Peptide text beside a SMILES is read from it. * marks the point of attachment. C20 diacid = O=C(O)CCCCCCCCCCCCCCCCCCC(=O)*; C18 diacid = O=C(O)CCCCCCCCCCCCCCCCC(=O)*; αMePhe(2-F) = C[C@](N)(Cc1ccccc1F)C(=O)O; γGlu = O=C(O)[C@H](CCC(=O)[*:2])N[*:1]; αMeL = CC(C)C[C@](C)(N)C(=O)O; AEEA = NCCOCCOCC(=O)O; Aib = CC(C)(N)C(=O)O

human GLP-1 receptor (GLP-1R), sequence (P43220 24-463): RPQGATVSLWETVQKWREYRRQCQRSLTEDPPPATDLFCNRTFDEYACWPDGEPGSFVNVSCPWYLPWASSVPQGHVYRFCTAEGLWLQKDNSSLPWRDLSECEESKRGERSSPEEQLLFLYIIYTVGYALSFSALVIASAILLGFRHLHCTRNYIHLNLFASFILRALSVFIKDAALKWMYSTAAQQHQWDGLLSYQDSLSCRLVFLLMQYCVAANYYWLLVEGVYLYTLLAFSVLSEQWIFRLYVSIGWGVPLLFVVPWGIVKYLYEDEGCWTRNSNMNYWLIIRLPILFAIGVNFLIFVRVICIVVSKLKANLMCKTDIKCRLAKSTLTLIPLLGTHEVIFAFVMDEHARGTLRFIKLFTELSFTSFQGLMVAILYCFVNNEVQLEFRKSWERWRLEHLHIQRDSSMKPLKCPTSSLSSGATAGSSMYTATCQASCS

Regarding `CC[C@H](C)[C@H](NC(=O)[C@H](CCCCN)NC(=O)[C@H](CC(=O)O)NC(=O)[C@H](CC(C)C)NC(=O)[C@H](CC(C)C)NC(=O)[C@@H](NC(=O)[C@H](CO)NC(=O)[C@H](Cc1ccc(O)cc1)NC(=O)[C@H](CC(=O)O)NC(=O)[C@H](CO)NC(=O)[C@@H](NC(=O)[C@H](Cc1ccccc1)NC(=O)[C@@H](NC(=O)CNC(=O)[C@H](CCC(=O)O)NC(=O)C(C)(C)NC(=O)[C@@H](N)Cc1ccc(O)cc1)[C@@H](C)O)[C@@H](C)O)[C@@H](C)CC)C(=O)N[C@@H](C)C(=O)N[C@@H](CCC(N)=O)C(=O)NC(C)(C)C(=O)N[C@@H](C)C(=O)N[C@@H](Cc1ccccc1)C(=O)N[C@H](C(=O)N[C@@H](CCC(=O)O)C(=O)N[C@@H](Cc1ccc(O)cc1)C(=O)N[C@@H](CC(C)C)C(=O)N[C@H](C(=O)N[C@@H](CCC(=O)O)C(=O)NCC(=O)NCC(=O)N1CCC[C@H]1C(=O)N[C@@H](CO)C(=O)N[C@@H](CO)C(=O)NCC(=O)N[C@@H](C)C(=O)N1CCC[C@H]1C(=O)N1CCC[C@H]1C(=O)N[C@@H](CCCCNC(=O)COCCOCCNC(=O)COCCOCCNC(=O)CC[C@H](NC(=O)CCCCCCCCCCCCCCCCCCC(=O)O)C(=O)O)C(=O)N[C@@H](CO)C(N)=O)[C@@H](C)CC)[C@@H](C)CC` [Example 47] (H-Y[Aib]EGTFTSDYSILLDKIAQ[Aib]AFIEYLIEGGPSSGAPPK([AEEA-AEEA-γGlu-C20 diacid])S-NH2), the values for the EC50 in test [1] and in test [2] were 0.702 nM and 0.287 nM, respectively. For `CC[C@H](C)[C@H](NC(=O)[C@H](CCCCN)NC(=O)[C@H](CC(=O)O)NC(=O)[C@H](CC(C)C)NC(=O)[C@H](CC(C)C)NC(=O)[C@@H](NC(=O)[C@H](CO)NC(=O)[C@H](CCCCNC(=O)COCCOCCNC(=O)COCCOCCNC(=O)CC[C@H](NC(=O)CCCCCCCCCCCCCCCCCCC(=O)O)C(=O)O)NC(=O)[C@H](CC(=O)O)NC(=O)[C@H](CO)NC(=O)[C@@H](NC(=O)[C@H](Cc1ccccc1)NC(=O)[C@@H](NC(=O)CNC(=O)[C@H](CCC(=O)O)NC(=O)C(C)(C)NC(=O)[C@@H](N)Cc1ccc(O)cc1)[C@@H](C)O)[C@@H](C)O)[C@@H](C)CC)C(=O)N[C@@H](C)C(=O)N[C@@H](CCC(N)=O)C(=O)NC(C)(C)C(=O)N[C@@H](C)C(=O)N[C@@H](Cc1ccccc1)C(=O)N[C@H](C(=O)N[C@@H](CCC(=O)O)C(=O)N[C@@H](Cc1ccc(O)cc1)C(=O)N[C@@H](CC(C)C)C(=O)N[C@H](C(=O)N[C@@H](CCC(=O)O)C(=O)NCC(=O)NCC(N)=O)[C@@H](C)CC)[C@@H](C)CC` [Example 70] (H-Y[Aib]EGTFTSDK([AEEA-AEEA-γGlu-C20 diacid])SILLDKIAQ[Aib]AFIEYLIEGG-NH2; N-terminus assumed) the same measures were 0.283 nM and 0.48 nM. For `CC[C@H](C)[C@H](NC(=O)[C@H](CCCCN)NC(=O)[C@H](CC(=O)O)NC(=O)[C@H](CCCCNC(=O)COCCOCCNC(=O)COCCOCCNC(=O)CC[C@H](NC(=O)CCCCCCCCCCCCCCCCCCC(=O)O)C(=O)O)NC(=O)[C@H](CC(C)C)NC(=O)[C@@H](NC(=O)[C@H](CO)NC(=O)[C@H](Cc1ccc(O)cc1)NC(=O)[C@H](CC(=O)O)NC(=O)[C@H](CO)NC(=O)[C@@H](NC(=O)[C@H](Cc1ccccc1)NC(=O)[C@@H](NC(=O)CNC(=O)[C@H](CCC(=O)O)NC(=O)C(C)(C)NC(=O)[C@@H](N)Cc1ccc(O)cc1)[C@@H](C)O)[C@@H](C)O)[C@@H](C)CC)C(=O)N[C@@H](C)C(=O)N[C@@H](CCC(N)=O)C(=O)NC(C)(C)C(=O)N[C@@H](C)C(=O)N[C@@H](Cc1ccccc1)C(=O)N[C@H](C(=O)N[C@@H](CCC(=O)O)C(=O)N[C@@H](Cc1ccc(O)cc1)C(=O)N[C@@H](CC(C)C)C(=O)N[C@H](C(=O)N[C@@H](CCC(=O)O)C(=O)NCC(=O)NCC(N)=O)[C@@H](C)CC)[C@@H](C)CC` [Example 71] (H-Y[Aib]EGTFTSDYSILK([AEEA-AEEA-γGlu-C20 diacid])DKIAQ[Aib]AFIEYLIEGG-NH2), in that order: 1.02 nM and 0.166 nM. As to `CC[C@H](C)[C@H](NC(=O)[C@H](CC(C)C)NC(=O)[C@H](Cc1ccc(O)cc1)NC(=O)[C@@H](CCC(=O)O)NC(=O)[C@@H](NC(=O)[C@H](Cc1ccccc1)NC(=O)[C@H](Cc1c[nH]cn1)NC(=O)C(C)(C)NC(=O)[C@H](CCC(N)=O)NC(=O)[C@H](C)NC(=O)[C@H](CCCCNC(=O)COCCOCCNC(=O)COCCOCCNC(=O)CC[C@H](NC(=O)CCCCCCCCCCCCCCCCC(=O)O)C(=O)O)NC(=O)[C@H](CCC(=O)O)NC(=O)[C@H](CC(=O)O)NC(=O)[C@H](CC(C)C)NC(=O)[C@](C)(CC(C)C)NC(=O)[C@@H](NC(=O)[C@H](CO)NC(=O)[C@H](Cc1c[nH]cn1)NC(=O)[C@H](CC(=O)O)NC(=O)[C@H](CO)NC(=O)[C@@H](NC(=O)[C@](C)(Cc1ccccc1F)NC(=O)[C@@H](NC(=O)CNC(=O)[C@H](CCC(=O)O)NC(=O)C(C)(C)NC(=O)[C@@H](N)Cc1ccc(O)cc1)[C@@H](C)O)[C@@H](C)O)[C@@H](C)CC)[C@@H](C)CC)C(=O)N[C@@H](CCC(=O)O)C(=O)NCC(=O)NCC(N)=O` [Example 180] (H-Y[Aib]EGT[αMePhe(2-F)]TSDHSI[αMeL]LDEK([AEEA-AEEA-γGlu-C18 diacid])AQ[Aib]HFI[dE]YLIEGG-NH2), the EC50 in test [1] is 2.16 nM. As to `CC[C@H](C)[C@H](NC(=O)[C@H](CC(C)C)NC(=O)[C@H](Cc1ccc(O)cc1)NC(=O)[C@@H](CCC(=O)O)NC(=O)[C@@H](NC(=O)[C@H](Cc1ccccc1)NC(=O)[C@H](CCC(=O)O)NC(=O)C(C)(C)NC(=O)[C@H](CCC(N)=O)NC(=O)[C@H](C)NC(=O)[C@H](CCCCNC(=O)COCCOCCNC(=O)COCCOCCNC(=O)CC[C@H](NC(=O)CCCCCCCCCCCCCCCCCCC(=O)O)C(=O)O)NC(=O)[C@H](CCC(=O)O)NC(=O)[C@H](CC(=O)O)NC(=O)[C@H](CC(C)C)NC(=O)[C@](C)(CC(C)C)NC(=O)[C@@H](NC(=O)[C@H](CO)NC(=O)[C@@H](Cc1ccc(O)cc1)NC(=O)[C@H](CC(=O)O)NC(=O)[C@H](CO)NC(=O)[C@@H](NC(=O)[C@](C)(Cc1ccccc1F)NC(=O)[C@@H](NC(=O)CNC(=O)[C@H](CCC(=O)O)NC(=O)C(C)(C)NC(=O)[C@@H](N)Cc1ccc(O)cc1)[C@@H](C)O)[C@@H](C)O)[C@@H](C)CC)[C@@H](C)CC)C(=O)N[C@@H](CCC(=O)O)C(=O)NCC(=O)NCC(=O)N1CCC[C@H]1C(=O)N[C@@H](CO)C(=O)N[C@@H](CO)C(=O)NCC(=O)N[C@@H](C)C(=O)N1CCC[C@H]1C(=O)N1CCC[C@H]1C(=O)N1CCC[C@H]1C(=O)N[C@@H](CO)C(N)=O` [Example 184] (H-Y[Aib]EGT[αMePhe(2-F)]TSD[dY]SI[αMeL]LDEK([AEEA-AEEA-γGlu-C20 diacid])AQ[Aib]EFI[dE]YLIEGGPSSGAPPPS-NH2), in test [2], the EC50 worked out at 0.0477 nM.
